For 19 compounds, IC50 results are on record in patent US20240391882A1 (Mirati Therapeutics, Inc., priority 2023, published 2024).

Common to all, as to format: cell-based
Assay [1] relates to T47D (PI3Kα H1047R mutant) cells. Kind of assay: Cell viability (CellTiter-Glo 2.0) in T47D cells. Particulars: Homo sapiens, T47D, 72 h, approximately 72 hours. In a few lines: (§1)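 SKBR3 or T47D cells, 1000 per well, were seeded overnight and then exposed ~72 h at 37° C to 10 concentrations of compound, 1:4 dilutions from 10 μm. Viability read by CellTiter-Glo luminescence as percent of vehicle; IC50 from four-parameter variable-slope fit.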
Background: Cellular ATP, detected with luciferase, serves as a proxy for viable cell number.

Assay [2] relates to SKBR3 (PI3Kα wild type) cells. Kind of assay: Cell viability (CellTiter-Glo 2.0) in SKBR3 cells. Particulars: Homo sapiens, SK-BR-3; SKBR3 (PI3Kα wild type) cells, approximately 72 hours, CellTiter-Glo 2.0; read-out: SKBR3 (WT) Viability IC50. In outline: as §1
For assay [3], the system named is pAKT in T47D (PI3Kα H1047R mutant) cells. Kind of assay: Inhibition of pAKT (alphaLISA Surefire Ultra AKT 1/2/3 pS473) in T47D cells. Particulars: Homo sapiens; T47D (PI3Kα H1047R mutant) cells, 24 hr compound incubation, alphaLISA pS473; read-out: T47D (H1047R) pAKT 24 hr (IC50). In a few lines: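 Cells in HBSS were dosed from 10.4 μm (1:4 serial dilution, 10 concentrations) and incubated about 24 hours at 37° C, then lysed. pAKT S473 measured by alphaLISA after overnight bead incubation. Signal normalised to alpelisib (3.125 μm) and DMSO controls; IC50 from four-parameter fit.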
In general terms: Alpha assays give light when donor and acceptor beads are brought close together.

One may read the IC50 as the concentration at which inhibition is half-maximal. Take `Cc1cc([C@@H](C)Nc2ccc(Cl)nc2C(=O)O)c2nc(N3CC4(CCC4(F)F)C3)c(C#N)nc2c1` [Example 256, (R)-6-chloro-3-((1-(2-cyano-3-(5,5-difluoro-2-azaspiro[3.3]heptan-2-yl)-7-methylquinoxalin-5-yl)ethyl)amino)picolinic acid]: the IC50 in assay [1] is 310 nM; in assay [2] it was more than 10000 nM; in assay [3], 0.11 nM.

Consider `Cc1cc([C@@H](C)Nc2ccccc2C(=O)O)c2nc(N3CCC(F)(F)CC3)c(C)nc2c1` [Example 36, (R)-2-((1-(3-(4,4-difluoropiperidin-1-yl)-2,7-dimethylquinoxalin-5-yl)ethyl)amino)benzoic acid], for which the 50% inhibitory concentration (IC50) is 1170 nM in assay [1], more than 10000 nM in assay [2] and 93.7 nM in assay [3].

Consider `COC1(C)CN(c2nc3c([C@@H](C)Nc4ccc(Cl)nc4C(=O)O)cc(C)cc3nc2C#N)C1` [Example 64, (R)-6-chloro-3-((1-(2-cyano-3-(3-methoxy-3-methylazetidin-1-yl)-7-methylquinoxalin-5-yl)ethyl)amino)picolinic acid], for which the IC50 in assay [1] was 44 nM; in assay [2], more than 10000 nM; in assay [3], 1.3 nM.

In the case of `Cc1cc([C@@H](C)Nc2ccc(Cl)nc2C(=O)O)c2nc(N3C[C@@H](C)OC[C@H]3C)c(C#N)nc2c1` [Example 237A, 6-chloro-3-(((R)-1-(2-cyano-3-((2R,5R)-2,5-dimethylmorpholino)-7-methylquinoxalin-5-yl)ethyl)amino)picolinic acid], the 50% inhibitory concentration (IC50) was 137 nM in assay [1], 8170 nM in assay [2] and 4.3 nM in assay [3].

Consider `Cc1cc([C@@H](C)Nc2ccc(Cl)nc2C(=O)O)c2nc(N3CCO[C@H](C(F)(F)F)C3)c(C#N)nc2c1` [Example 190A, 6-chloro-3-(((R)-1-(2-cyano-7-methyl-3-((S)-2-(trifluoromethyl)morpholino)quinoxalin-5-yl)ethyl)amino)picolinic acid], for which the results for the IC50 in assay [1], in assay [2] and in assay [3] were 271 nM, more than 10000 nM and 4.4 nM, respectively.

For the compound `Cc1cc([C@@H](C)Nc2ccc(Cl)nc2C(=O)O)c2nc(N3CCC[C@@H]([C@H](C)O)C3)c(C#N)nc2c1` [Example 261C, 6-chloro-3-(((R)-1-(2-cyano-3-((R)-3-((S)-1-hydroxyethyl)piperidin-1-yl)-7-methylquinoxalin-5-yl)ethyl)amino)picolinic acid], the half-maximal inhibitory concentration (IC50) was 78 nM in assay [1], more than 10000 nM in assay [2] and 2.1 nM in assay [3].

In the case of `CO[C@@H]1CCCN(c2nc3c([C@@H](C)Nc4ccc(Cl)nc4C(=O)O)cc(C)cc3nc2C#N)C1` [Example 196B, 6-chloro-3-(((R)-1-(2-cyano-3-((R)-3-methoxypiperidin-1-yl)-7-methylquinoxalin-5-yl)ethyl)amino)picolinic acid], the IC50 in assay [1] was 61.4 nM; in assay [2] it was more than 10000 nM; in assay [3] it was 2.2 nM.

Consider `Cc1cc([C@@H](C)Nc2ccc(Cl)nc2C(=O)O)c2nc(N3C[C@@H](CO)C(F)(F)C3)c(C#N)nc2c1` (single isomer, unassigned) [Example 210B], for which the IC50 was 121 nM in assay [1], more than 10000 nM in assay [2] and 0.8 nM in assay [3].

As to `Cc1cc([C@@H](C)Nc2ccc(Cl)nc2C(=O)O)c2nc(N3Cc4ccc(F)cc4C3)c(C#N)nc2c1` [Example 24, (R)-6-chloro-3-((1-(2-cyano-3-(5-fluoroisoindolin-2-yl)-7-methylquinoxalin-5-yl)ethyl)amino)picolinic acid], the half-inhibitory concentration (IC50) was 44.2 nM in assay [1], more than 10000 nM in assay [2] and 1.3 nM in assay [3].

In the case of `Cc1cc([C@@H](C)Nc2ccccc2C(=O)O)c2nc(C3CC3)c(C#N)nc2c1` [Example 67, (R)-2-((1-(2-cyano-3-cyclopropyl-7-methylquinoxalin-5-yl)ethyl)amino)benzoic acid], the concentration for half-maximal inhibition (IC50) in assay [1] stood at 687 nM; in assay [2] it was 2770 nM; in assay [3], 72 nM.

Turning to `Cc1cc([C@@H](C)Nc2ccccc2C(=O)O)c2nc(N3CCCC3)c(C#N)nc2c1` [Example 68, (R)-2-((1-(2-cyano-7-methyl-3-(pyrrolidin-1-yl)quinoxalin-5-yl)ethyl)amino)benzoic acid], the half-maximal inhibitory concentration (IC50) is 391 nM in assay [1], more than 10000 nM in assay [2] and 24.4 nM in assay [3].

`Cc1cc([C@@H](C)Nc2ccc(Cl)nc2C(=O)O)c2nc(N3CCC[C@@H]([C@@H](C)O)C3)c(C#N)nc2c1` [Example 261D, 6-chloro-3-(((R)-1-(2-cyano-3-((R)-3-((R)-1-hydroxyethyl)piperidin-1-yl)-7-methylquinoxalin-5-yl)ethyl)amino)picolinic acid]: the 50% inhibitory concentration (IC50) in assay [1] was 76 nM; in assay [2], more than 10000 nM; in assay [3] it was 1.2 nM.

For the compound `Cc1cc([C@@H](C)Nc2ccc(Cl)nc2C(=O)O)c2nc(N3CC4(CC[C@@H]4F)C3)c(C#N)nc2c1` (single isomer, unassigned) [Example 257A], the values for the IC50 in assay [1], in assay [2] and in assay [3] were 139 nM, 3740 nM and 4.8 nM, respectively.

Regarding `COC[C@@H]1CN(c2nc3c([C@@H](C)Nc4ccc(Cl)nc4C(=O)O)cc(C)cc3nc2C#N)CC1(F)F` (single isomer, unassigned) [Example 211A], the values for the IC50 in assay [1], in assay [2] and in assay [3] were 78 nM, 6900 nM and 5.7 nM, respectively.

`Cc1cc([C@@H](C)Nc2ccc(Cl)nc2C(=O)O)c2nc(N3CC4(CC(F)C4)C3)c(C#N)nc2c1` [Example 258, (R)-6-chloro-3-((1-(2-cyano-3-(6-fluoro-2-azaspiro[3.3]heptan-2-yl)-7-methylquinoxalin-5-yl)ethyl)amino)picolinic acid]: the IC50 in assay [1] turned out to be 86 nM; in assay [2] it was 8700 nM; in assay [3], 2.99 nM.

Turning to `Cc1cc([C@@H](C)Nc2ccccc2C(=O)O)c2nc(N3CC(C)(C)C3)c(C#N)nc2c1` [Example 55, (R)-2-((1-(2-cyano-3-(3,3-dimethylazetidin-1-yl)-7-methylquinoxalin-5-yl)ethyl)amino)benzoic acid], the values for the IC50 in assay [1], in assay [2] and in assay [3] were 422 nM, more than 10000 nM and 21.6 nM, respectively.

For the compound `C[C@@H](Nc1ccccc1C(=O)O)c1cc(Cl)cc2nc(C#N)c(N3CCC(F)(F)CC3)nc12` [Example 30, (R)-2-((1-(7-chloro-2-cyano-3-(4,4-difluoropiperidin-1-yl)quinoxalin-5-yl)ethyl)amino)benzoic acid], the concentration for half-maximal inhibition (IC50) in assay [1] is 183 nM; in assay [2], more than 10000 nM; in assay [3], 4.7 nM.

Consider `Cc1cc([C@@H](C)Nc2ccc(Cl)nc2C(=O)O)c2nc(N3CCC4(CC4)C(F)(F)C3)c(C#N)nc2c1` [Example 22, (R)-6-chloro-3-((1-(2-cyano-3-(4,4-difluoro-6-azaspiro[2.5]octan-6-yl)-7-methylquinoxalin-5-yl)ethyl)amino)picolinic acid], for which the IC50 in assay [1] came out at 79.3 nM; in assay [2] it was 5320 nM; in assay [3] it was 1.9 nM.

For the compound `Cc1cc([C@@H](C)Nc2ccc(Cl)nc2C(=O)O)c2nc(N3C[C@@H](C)OC[C@@H]3C)c(C#N)nc2c1` [Example 238B, 6-chloro-3-(((R)-1-(2-cyano-3-((2R,5S)-2,5-dimethylmorpholino)-7-methylquinoxalin-5-yl)ethyl)amino)picolinic acid], the half-inhibitory concentration (IC50) in assay [1] was 117 nM; in assay [2], more than 10000 nM; in assay [3], 3.5 nM.
